Broadly, the pIC50 is −log10 of the IC50, conventionally taken in molar units.

The source of these data is patent US11279687B2, “Compounds and compositions for the inhibition of NAMPT” (Valo Health, Inc., priority 2010, dated 2022).

In one test the test system is A2780 cells. As to the kind of experiment: In-vitro cell proliferation assay (SRB), A2780 cells.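 Also: viable cell number read as SRB absorbance, background from media-only wells subtracted, IC50 interpolated from percent inhibition at two bracketing compound concentrations.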 The note with it: A2780 cells, 72 hours, SRB, read-out: A2780 IC50. Type of test: cell-based.
Another test addresses NAMPT (Homo sapiens (Human), UniProt P43490). As to the kind of experiment: NAMPT biochemical inhibition assay (NMN quantified by mass spectrometry). The note with it: NAMPT biochemical inhibition; read-out: Biochem IC50.

pIC50: −log10 of the molar value. Like-named read-outs stand apart in the source and are kept apart here.

NAMPT, sequence (P43490 whole entry): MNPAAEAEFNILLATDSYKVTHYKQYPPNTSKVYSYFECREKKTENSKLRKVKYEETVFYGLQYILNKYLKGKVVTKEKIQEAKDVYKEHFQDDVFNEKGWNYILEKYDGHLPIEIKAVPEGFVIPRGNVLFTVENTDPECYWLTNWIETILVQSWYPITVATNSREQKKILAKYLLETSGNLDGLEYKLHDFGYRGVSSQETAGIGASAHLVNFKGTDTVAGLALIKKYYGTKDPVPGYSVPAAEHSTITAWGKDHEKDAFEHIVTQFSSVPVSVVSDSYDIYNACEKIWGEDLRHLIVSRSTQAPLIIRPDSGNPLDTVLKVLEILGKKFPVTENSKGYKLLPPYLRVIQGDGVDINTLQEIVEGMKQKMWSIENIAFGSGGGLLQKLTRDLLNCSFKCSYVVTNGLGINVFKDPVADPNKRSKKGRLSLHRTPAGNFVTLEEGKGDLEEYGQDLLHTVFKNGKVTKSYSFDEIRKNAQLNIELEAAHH

`O=C(NCc1cccnc1)Nc1ccc(S(=O)(=O)Nc2ccc(Cl)c(Cl)c2)cc1` [3-{4-[(3,4-dichlorophenyl)sulfamoyl]phenyl]-1-(pyridin-3-ylmethyl)urea]: the pIC50 in the test with A2780 cells (Homo sapiens, A2780, 72 h) is 6.91; on NAMPT, 8.22.
The matching figures for `O=C(NCc1cccnc1)Nc1ccc(S(=O)(=O)c2cc(Cl)cc(C(F)(F)F)c2)cc1` [3-(4-{[3-chloro-5-(trifluoromethyl)benzene]sulfonyl}phenyl)-1-(pyridin-3-ylmethyl)urea]: 7.59 and 8.89.
On the same counts, the results for `O=C(NCc1cccnc1)Nc1ccc(S(=O)(=O)N2CCC[C@H](C(=O)N3CCCC3)C2)cc1` [3-(pyridin-3-ylmethyl)-1-{4-[(3S)-3-[(pyrrolidin-1-yl)carbonyl]piperidine-1-sulfonyl]phenyl}urea] are 6.86 and 8.05.
On the same counts, the results for `Cc1ccc(C)c(N2CCN(S(=O)(=O)c3ccc(NC(=O)NCc4cccnc4)cc3)CC2)c1` [3-{4-[4-(2,5-dimethylphenyl)piperazine-1-sulfonyl]phenyl}-1-(pyridin-3-ylmethyl)urea] are 7.00 and 8.30.
In the case of `O=C(NCc1cccnc1)Nc1ccc(S(=O)(=O)Nc2ccccc2OC(F)(F)F)cc1` [1-(pyridin-3-ylmethyl)-3-(4-{[2-(trifluoromethoxy)phenyl]sulfamoyl}phenyl)urea], the pIC50 is 8.15 with A2780 cells (Homo sapiens, A2780, 72 h) and 8.92 on NAMPT.
In the case of `O=C(NCc1cccnc1)Nc1ccc(S(=O)(=O)N2CCN(C(=O)Cc3ccc(Cl)c(Cl)c3)CC2)cc1` [3-(4-{4-[2-(3,4-dichlorophenyl)acetyl]piperazine-1-sulfonyl[phenyl)-1-(pyridin-3-ylmethyl)urea], the results for the pIC50 in the test on A2780 cells and on NAMPT were 5.00 to 6.00 and 8.43, respectively.
With `CC(C)c1cccc(S(=O)(=O)c2ccc(NC(=O)NCc3cccnc3)cc2)c1` [3-(4-{[3-(propan-2-yl)benzene]sulfonyl}phenyl)-1-(pyridin-3-ylmethyl)urea], the pIC50 was 7.42 with A2780 cells (Homo sapiens, A2780, 72 h) and 8.70 on NAMPT.
Regarding `Cc1cc(F)ccc1S(=O)(=O)c1ccc(NC(=O)NCc2cccnc2)cc1` [3-{4-[(4-fluoro-2-methylbenzene)sulfonyl]phenyl}-1-(pyridin-3-ylmethyl)urea], the pIC50 in the test on A2780 cells (Homo sapiens, A2780, 72 h) was 6.54; at NAMPT it was 8.30.
On the same counts, the results for `Cc1cc(C)cc(S(=O)(=O)c2ccc(NC(=O)NCc3cccnc3)cc2)c1` [3-{4-[(3,5-dimethylbenzene)sulfonyl]phenyl}-1-(pyridin-3-ylmethyl)urea] are 7.40 and 9.00.
The matching figures for `O=C(NCc1cccnc1)Nc1ccc(S(=O)(=O)c2ccc(Br)cc2)cc1` [3-{4-[(4-bromobenzene)sulfonyl]phenyl}-1-(pyridin-3-ylmethyl)urea]: 6.62 and 8.52.
The matching figures for `O=C(NCc1cccnc1)Nc1ccc(S(=O)(=O)N2CCCCC2)cc1F` [3-[2-fluoro-4-(piperidine-1-sulfonyl)phenyl]-1-(pyridin-3-ylmethyl)urea]: 6.00 and 7.64.
In the case of `CCc1ccc(S(=O)(=O)c2ccc(NC(=O)NCc3cccnc3)cc2)cc1` [3-{4-[(4-ethylbenzene)sulfonyl]phenyl}-1-(pyridin-3-ylmethyl)urea], the pIC50 was 6.27 in the test with A2780 cells (Homo sapiens, A2780, 72 h) and 8.52 at NAMPT.
Take `COc1cc(S(=O)(=O)c2ccc(NC(=O)NCc3cccnc3)cc2)ccc1Cl` [3-{4-[(4-chloro-3-methoxybenzene)sulfonyl]phenyl}-1-(pyridin-3-ylmethyl)urea]: the pIC50 in the test on A2780 cells (Homo sapiens, A2780, 72 h) was 7.20; at NAMPT, 8.36.
The matching figures for `O=C(NCc1cccnc1)Nc1ccc(S(=O)(=O)c2ccc(F)c(F)c2)cc1` [3-{4-[(3,4-difluorobenzene)sulfonyl]phenyl}-1-(pyridin-3-ylmethyl)urea]: 6.67 and 8.52.
On the same counts, the results for `Cc1cc(C)n(-c2cccc(S(=O)(=O)c3ccc(NC(=O)NCc4cccnc4)cc3)c2)n1` [3-(4-{[3-(3,5-dimethyl-1H-pyrazol-1-yl)benzene]sulfonyl}phenyl)-1-(pyridin-3-ylmethyl)urea] are 7.80 and 8.80.
On the same counts, the results for `O=C(NCc1cccnc1)Nc1ccc(S(=O)(=O)Nc2ccc(N3CCOCC3)c(Cl)c2)cc1` [3-(4-{[3-chloro-4-(morpholin-4-yl)phenyl]sulfamoyl}phenyl)-1-(pyridin-3-ylmethyl)urea] are 7.62 and 9.00.
For `CCN(CC)C(=O)[C@H]1CCCN(S(=O)(=O)c2ccc(NC(=O)NCc3cccnc3)cc2)C1` [(3S)-N,N-diethyl-1-[(4-{[(pyridin-3-ylmethyl)carbamoyl]amino}benzene)sulfonyl]piperidine-3-carboxamide], the pIC50 is 7.60 with A2780 cells and 8.22 on NAMPT.
Consider `COc1cc(F)c(S(=O)(=O)c2ccc(NC(=O)NCc3cccnc3)cc2)cc1F` [3-{4-[(2,5-difluoro-4-methoxybenzene)sulfonyl]phenyl}-1-(pyridin-3-ylmethyl)urea], for which the pIC50 in the test with A2780 cells (Homo sapiens, A2780, 72 h) was 6.98; at NAMPT it was 8.40.
The matching figures for `CCNC(=O)c1cccc(S(=O)(=O)c2ccc(NC(=O)NCc3cccnc3)cc2)c1` [N-ethyl-3-[(4-{[(pyridin-3-ylmethyl)carbamoyl]amino[benzene)sulfonyl]benzamide]: 6.00 to 7.00 and 8.17.
In the case of `O=C(NCc1cccnc1)Nc1ccc(S(=O)(=O)c2cccc(C(=O)NC3CC3)c2)cc1` [N-cyclopropyl-3-[(4-{[(pyridin-3-ylmethyl)carbamoyl]amino[benzene)sulfonyl]benzamide], the pIC50 is 6.00 to 7.00 in the test on A2780 cells and 8.19 at NAMPT.
In the case of `COCc1ccccc1S(=O)(=O)c1ccc(NC(=O)NCc2cccnc2)cc1` [3-(4-{[2-(methoxymethyl)benzene]sulfonyl}phenyl)-1-(pyridin-3-ylmethyl)urea], the pIC50 is 7.41 in the test on A2780 cells (Homo sapiens, A2780, 72 h) and 8.22 at NAMPT.
In the case of `Cc1cc(Cl)cc(S(=O)(=O)c2ccc(NC(=O)NCc3cccnc3)cc2)c1` [3-{4-[(3-chloro-5-methylbenzene)sulfonyl]phenyl}-1-(pyridin-3-ylmethyl)urea], the pIC50 with A2780 cells (Homo sapiens, A2780, 72 h) is 7.17; on NAMPT, 8.74.
On to `Cc1cc(-n2cccn2)ccc1S(=O)(=O)c1ccc(NC(=O)NCc2cccnc2)cc1` [3-(4-{[2-methyl-4-(1H-pyrazol-1-yl)benzene]sulfonyl}phenyl)-1-(pyridin-3-ylmethyl)urea], for which the pIC50 in the test on A2780 cells (Homo sapiens, A2780, 72 h) was 7.68; on NAMPT it was 8.70.
On the same counts, the results for `O=C(NCc1cccnc1)Nc1ccc(S(=O)(=O)Nc2ccccc2Br)cc1` [3-{4-[(2-bromophenyl)sulfamoyl]phenyl}-1-(pyridin-3-ylmethyl)urea] are 7.62 and 8.70.
In the case of `CCN(CC)C(=O)c1ccccc1NS(=O)(=O)c1ccc(NC(=O)NCc2cccnc2)cc1` [N,N-diethyl-2-[(4-{[(pyridin-3-ylmethyl)carbamoyl]amino]benzene)sulfonamido]benzamide], the figures for the pIC50 with A2780 cells and at NAMPT were 8.22 and 8.10, respectively.
`CCCS(=O)(=O)Nc1cccc(S(=O)(=O)c2ccc(NC(=O)NCc3cccnc3)cc2)c1` [3-(4-{[3-(propane-1-sulfonamido)benzene]sulfonyl}phenyl)-1-(pyridin-3-ylmethyl)urea]: the pIC50 was 7.07 in the test on A2780 cells (Homo sapiens, A2780, 72 h) and 8.80 on NAMPT.
On the same counts, the results for `CC1CCCC(C)N1S(=O)(=O)c1ccc(NC(=O)NCc2cccnc2)cc1` (stereo not drawn) [1-[4-(2,6-dimethylpiperidine-1-sulfonyl)phenyl]-3-(pyridin-3-ylmethyl)urea] are 6.79 and 7.96.
The matching figures for `O=C(NCc1ccc2nccn2c1)c1ccc(S(=O)(=O)Nc2cccc(Cl)c2)cc1` [4-[(3-chlorophenyl)sulfamoyl]-N-{imidazo[1,2-a]pyridin-6-ylmethyl}benzamide]: 8.15 and 6.86.
The matching figures for `O=C(NCc1cccnc1)Nc1ccc(S(=O)(=O)N2CC3CCC2C3)cc1` (stereo not drawn) [1-(4-{2-azabicyclo[2.2.1]heptane-2-sulfonyl}phenyl)-3-(pyridin-3-ylmethyl)urea]: 6.63 and 8.00.
`COc1ccc(CNS(=O)(=O)c2ccc(NC(=O)NCc3cccnc3)cc2)cc1` [3-(4-{[(4-methoxyphenyl)methyl]sulfamoyl}phenyl)-1-(pyridin-3-ylmethyl)urea]: the pIC50 with A2780 cells (Homo sapiens, A2780, 72 h) was 6.29; at NAMPT it was 7.80.
The matching figures for `O=C(NCc1cccnc1)Nc1ccc(S(=O)(=O)NCc2ccccn2)cc1` [1-{4-[(pyridin-2-ylmethyl)sulfamoyl]phenyl}-3-(pyridin-3-ylmethyl)urea]: 5.00 to 6.00 and 8.08.
In the case of `CCCn1cc(S(=O)(=O)c2ccc(NC(=O)NCc3cccnc3)cc2)cn1` [3-[4-(1-propyl-1H-pyrazole-4-sulfonyl)phenyl]-1-(pyridin-3-ylmethyl)urea], the pIC50 is 7.88 in the test with A2780 cells (Homo sapiens, A2780, 72 h) and 8.20 at NAMPT.
On the same counts, the results for `COc1ccc(Cl)cc1NS(=O)(=O)c1ccc(C(=O)NCc2ccc3nccn3c2)cc1` [4-[(5-chloro-2-methoxyphenyl)sulfamoyl]-N-{imidazo[1,2-a]pyridin-6-ylmethyl}benzamide] are 8.64 and 8.67.
The matching figures for `COc1cc(S(=O)(=O)c2ccc(NC(=O)NCc3cccnc3)cc2)ccc1F` [3-{4-[(4-fluoro-3-methoxybenzene)sulfonyl]phenyl}-1-(pyridin-3-ylmethyl)urea]: 7.35 and 8.43.
On the same counts, the results for `CC(=O)c1cccc(S(=O)(=O)c2ccc(NC(=O)NCc3cccnc3)cc2)c1` [3-{4-[(3-acetylbenzene)sulfonyl]phenyl}-1-(pyridin-3-ylmethyl)urea] are 6.00 to 7.00 and 8.68.
In the case of `O=C(NCc1cccnc1)Nc1ccc(S(=O)(=O)N2CCN(CC(=O)N3CCOCC3)CC2)cc1` [1-(4-{4-[2-(morpholin-4-yl)-2-oxoethyl]piperazine-1-sulfonyl}phenyl)-3-(pyridin-3-ylmethyl)urea], the pIC50 was 6.87 in the test on A2780 cells (Homo sapiens, A2780, 72 h) and 8.40 on NAMPT.
